Test results: patent publication US12448388B2, “PRMT5 inhibitors and uses thereof” (Gilead Sciences, Inc., priority 2023, dated 2025)

System: HCT116 MTAP-deleted cell lines
Assay: Cell viability assay (CellTiter-Glo, 7 days), HCT116 MTAP-deleted
Type: cell-based
Conditions: Homo sapiens, HCT-116; cell viability assay, HCT116 MTAP-deleted; class symbols; read-out: CC50
Summary of the method: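 Luminescent ATP readout (CellTiter-Glo) after 7 days of continuous compound exposure gives the CC50 value. Cells were plated onto pre-dispensed DMSO dilution series of the PRMT5 inhibitors and kept at 37 °C in 5% CO2.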

Row | SMILES | CC50 [µM]
1 | C[C@@H]1C[C@@H]2Oc3nc(C(F)(F)F)ccc3[C@@H]2N(C(=O)c2cc3c(cc2F)nc(N)c2cncn23)C1 [Ff-375, (4-amino-7-fluoroimidazo[1,5-a]quinoxalin-8-yl)((3R,4aS,9bS)-3-methyl-7-(trifluoromethyl)-3,4,4a,9b-tetrahydrofuro[2,3-b:4,5-b′]dipyridin-1(2H)-yl)methanone] | < 0.1
2 | Cc1ncc2c(N)nc3cnc(C(=O)N4CCC[C@@H]5Oc6cc(OC(F)(F)F)c(F)cc6[C@@H]54)cc3n12 [Ff-376, (4-amino-1-methylimidazo[1,5-a]pyrido[3,4-e]pyrazin-8-yl)((4aS,9bS)-8-fluoro-7-(trifluoromethoxy)-3,4,4a,9b-tetrahydrobenzofuro[3,2-b]pyridin-1(2H)-yl)methanone] | < 0.1
3 | Nc1nc2ccc(C(=O)N3CCC[C@@H]4Oc5cc(OC(F)(F)F)c(F)cc5[C@@H]43)cc2n2cncc12 [Ff-377, (4-aminoimidazo[1,5-a]quinoxalin-8-yl)((4aS,9bS)-8-fluoro-7-(trifluoromethoxy)-3,4,4a,9b-tetrahydrobenzofuro[3,2-b]pyridin-1(2H)-yl)methanone] | < 0.1
4 | CC1(C)CN(C(=O)c2cc3c(cc2F)nc(N)c2cncn23)[C@H]2c3ccc(C(F)(F)F)cc3C[C@H]2O1 [Ff-380, (4-amino-7-fluoroimidazo[1,5-a]quinoxalin-8-yl)((4aS,9aR)-2,2-dimethyl-7-(trifluoromethyl)-2,3,9,9a-tetrahydroindeno[2,1-b][1,4]oxazin-4(4aH)-yl)methanone] | < 0.1
5 | Nc1nc2ccc(C(=O)N3CCC[C@@H]4Oc5c(ccc(OC(F)(F)F)c5F)[C@@H]43)cc2n2cncc12 [Ff-381, (4-aminoimidazo[1,5-a]quinoxalin-8-yl)((4aS,9bS)-6-fluoro-7-(trifluoromethoxy)-3,4,4a,9b-tetrahydrobenzofuro[3,2-b]pyridin-1(2H)-yl)methanone] | < 0.1
6 | Cc1ncn2c1c(N)nc1cc(F)c(C(=O)N(C)[C@@H]3COc4cc(C(C)(F)F)ccc43)cc12 [Ff-382, (S)-4-amino-N-(6-(1,1-difluoroethyl)-2,3-dihydrobenzofuran-3-yl)-7-fluoro-N,3-dimethylimidazo[1,5-a]quinoxaline-8-carboxamide] | < 0.1
7 | Nc1nc2ccc(C(=O)N3CCC[C@@H]4Oc5cc(OC(F)(F)F)ccc5[C@@H]43)cc2n2cncc12 [Ff-383, (4-aminoimidazo[1,5-a]quinoxalin-8-yl)((4aS,9bS)-7-(trifluoromethoxy)-3,4,4a,9b-tetrahydrobenzofuro[3,2-b]pyridin-1(2H)-yl)methanone] | < 0.1
8 | C[C@H]1CC2Oc3cc(C(F)(F)F)ccc3C2N(C(=O)c2cc3c(cn2)nc(N)c2cncn23)C1 (stereo partly drawn) [Ff-386, (4-aminoimidazo[1,5-a]pyrido[3,4-e]pyrazin-8-yl)((3S)-3-methyl-7-(trifluoromethyl)-3,4,4a,9b-tetrahydrobenzofuro[3,2-b]pyridin-1(2H)-yl)methanone] | < 0.1
9 | Cc1ncc2c(N)nc3cnc(C(=O)N4C[C@H](C)C[C@@H]5Oc6c(ccc(C(F)(F)F)c6F)[C@@H]54)cc3n12 [Ff-388, (4-amino-1-methylimidazo[1,5-a]pyrido[3,4-e]pyrazin-8-yl)((3R,4aS,9bS)-6-fluoro-3-methyl-7-(trifluoromethyl)-3,4,4a,9b-tetrahydrobenzofuro[3,2-b]pyridin-1(2H)-yl)methanone] | < 0.1
10 | Nc1nc2ccc(C(=O)N3CCC[C@@H]4Oc5cc(C(F)(F)F)c(F)cc5[C@@H]43)cc2n2cncc12 [Ff-389, (4-aminoimidazo[1,5-a]quinoxalin-8-yl)((4aS,9bS)-8-fluoro-7-(trifluoromethyl)-3,4,4a,9b-tetrahydrobenzofuro[3,2-b]pyridin-1(2H)-yl)methanone] | < 0.1
11 | Nc1nc2cc(F)c(C(=O)N3CC(C(F)(F)F)OCC3c3ccc(C(F)(F)F)cn3)cc2n2cncc12 (centres unmarked) [Ff-401] | 0.1 to 1
12 | Nc1nc2cc(F)c(C(=O)N3CCC(F)(F)C[C@@H]3c3ccc(OC(F)(F)F)cc3)cc2n2cncc12 [Ff-403, (R)-(4-amino-7-fluoroimidazo[1,5-a]quinoxalin-8-yl)(4,4-difluoro-2-(4-(trifluoromethoxy)phenyl)piperidin-1-yl)methanone] | 0.1 to 1
13 | Nc1nc2cc(F)c(C(=O)N3CCCC[C@@H]3c3ccc(S(F)(F)(F)(F)F)cc3)cc2n2cncc12 [Ff-404, (R)-(4-amino-7-fluoroimidazo[1,5-a]quinoxalin-8-yl)(2-(4-(pentafluoro-λ^6-sulfaneyl)phenyl)piperidin-1-yl)methanone] | < 0.1
14 | Nc1nc2cc(F)c(C(=O)N3CCC(F)(F)C[C@@H]3c3ccc(S(F)(F)(F)(F)F)cc3)cc2n2cncc12 [Ff-405, (R)-(4-amino-7-fluoroimidazo[1,5-a]quinoxalin-8-yl)(4,4-difluoro-2-(4-(pentafluoro-λ^6-sulfaneyl)phenyl)piperidin-1-yl)methanone] | < 0.1
15 | C[C@H]1CN(C(=O)c2cc3c(cc2Cl)nc(N)c2cncn23)[C@H]2c3ccc(C(F)(F)F)cc3C[C@H]2O1 [Ff-406, (4-amino-7-chloroimidazo[1,5-a]quinoxalin-8-yl)((2S,4aS,9aR)-2-methyl-7-(trifluoromethyl)-2,3,9,9a-tetrahydroindeno[2,1-b][1,4]oxazin-4(4aH)-yl)methanone] | < 0.1
16 | Nc1nc2ccc(C(=O)N(Cc3ccc(C(F)(F)F)cc3F)C3CCC3)cc2n2cncc12 [Ff-408, 4-amino-N-cyclobutyl-N-[[2-fluoro-4-(trifluoromethyl)phenyl]methyl]imidazo[1,5-a]quinoxaline-8-carboxamide] | < 0.1
17 | CN(Cc1ccc(C(F)(F)F)cc1C(F)(F)F)C(=O)c1ccc2nc(N)c3cncn3c2c1 [Ff-409, 4-amino-N-[[2,4-bis(trifluoromethyl)phenyl]methyl]-N-methyl-imidazo[1,5-a]quinoxaline-8-carboxamide] | 0.1 to 1
18 | CN(Cc1ccc(C(F)(F)F)cc1F)C(=O)c1ccc2nc(N)c3cncn3c2c1 [Ff-411, 4-amino-N-[[2-fluoro-4-(trifluoromethyl)phenyl]methyl]-N-methyl-imidazo[1,5-a]quinoxaline-8-carboxamide] | 0.1 to 1
19 | Cc1nn(C)cc1N(Cc1ccc(C(F)(F)F)cc1F)C(=O)c1cc2c(cc1F)nc(N)c1cncn12 [Ff-413, 4-amino-N-(1,3-dimethylpyrazol-4-yl)-7-fluoro-N-[[2-fluoro-4-(trifluoromethyl)phenyl]methyl]imidazo[1,5-a]quinoxaline-8-carboxamide] | < 0.1
20 | Cc1c(N(Cc2ccc(C(F)(F)F)cc2F)C(=O)c2cc3c(cc2F)nc(N)c2cncn23)cnn1C [Ff-414, 4-amino-N-(1,5-dimethylpyrazol-4-yl)-7-fluoro-N-[[2-fluoro-4-(trifluoromethyl)phenyl]methyl]imidazo[1,5-a]quinoxaline-8-carboxamide] | < 0.1
21 | Nc1nc2cc(F)c(C(=O)N(Cc3ccc(C(F)(F)F)cn3)C3CC(F)(F)C3)cc2n2cncc12 [Ff-415, 4-amino-N-(3,3-difluorocyclobutyl)-7-fluoro-N-[[5-(trifluoromethyl)-2-pyridyl]methyl]imidazo[1,5-a]quinoxaline-8-carboxamide] | < 0.1
22 | C[C@H](c1ncccn1)N(Cc1ccc(C(F)(F)F)cc1F)C(=O)c1cc2c(cc1F)nc(N)c1cncn12 [Ff-416, 4-amino-7-fluoro-N-[[2-fluoro-4-(trifluoromethyl)phenyl]methyl]-N-[(1R)-1-pyrimidin-2-ylethyl]imidazo[1,5-a]quinoxaline-8-carboxamide] | < 0.1
23 | Cc1nn(C)c(C)c1N(Cc1ccc(C(F)(F)F)cc1F)C(=O)c1cc2c(cc1F)nc(N)c1cncn12 [Ff-417, 4-amino-7-fluoro-N-[[2-fluoro-4-(trifluoromethyl)phenyl]methyl]-N-(1,3,5-trimethylpyrazol-4-yl)imidazo[1,5-a]quinoxaline-8-carboxamide] | < 0.1
24 | C[C@H](C#N)N(Cc1ccc(C(F)(F)F)cc1F)C(=O)c1cc2c(cc1F)nc(N)c1cncn12 [Ff-418, 4-amino-N-[(1R)-1-cyanoethyl]-7-fluoro-N-[[2-fluoro-4-(trifluoromethyl)phenyl]methyl]imidazo[1,5-a]quinoxaline-8-carboxamide] | 0.1 to 1
25 | COC[C@@H](C)N(Cc1ccc(C(F)(F)F)cc1F)C(=O)c1cc2c(cc1F)nc(N)c1cncn12 [Ff-419, 4-amino-7-fluoro-N-[[2-fluoro-4-(trifluoromethyl)phenyl]methyl]-N-[(1R)-2-methoxy-1-methyl-ethyl]imidazo[1,5-a]quinoxaline-8-carboxamide] | < 0.1
26 | C[C@H](C(N)=O)N(Cc1ccc(C(F)(F)F)cc1F)C(=O)c1cc2c(cc1F)nc(N)c1cncn12 [Ff-420, 4-amino-N-[(1R)-2-amino-1-methyl-2-oxo-ethyl]-7-fluoro-N-[[2-fluoro-4-(trifluoromethyl)phenyl]methyl]imidazo[1,5-a]quinoxaline-8-carboxamide] | 0.1 to 1
27 | Cn1cc(N(Cc2ccc(C(F)(F)F)cc2F)C(=O)c2cc3c(cc2F)nc(N)c2cncn23)c(Cl)n1 [Ff-421, 4-amino-N-(3-chloro-1-methyl-pyrazol-4-yl)-7-fluoro-N-[[2-fluoro-4-(trifluoromethyl)phenyl]methyl]imidazo[1,5-a]quinoxaline-8-carboxamide] | < 0.1
28 | COc1nn(C)cc1N(Cc1ccc(C(F)(F)F)cc1F)C(=O)c1cc2c(cc1F)nc(N)c1cncn12 [Ff-422, 4-amino-7-fluoro-N-[[2-fluoro-4-(trifluoromethyl)phenyl]methyl]-N-(3-methoxy-1-methyl-pyrazol-4-yl)imidazo[1,5-a]quinoxaline-8-carboxamide] | < 0.1
29 | Nc1nc2cc(F)c(C(=O)N(Cc3ccc(C(F)(F)F)cn3)c3cnn4ccccc34)cc2n2cncc12 [Ff-423, 4-amino-7-fluoro-N-pyrazolo[1,5-a]pyridin-3-yl-N-[[5-(trifluoromethyl)-2-pyridyl]methyl]imidazo[1,5-a]quinoxaline-8-carboxamide] | < 0.1
